Source: PMC8115619, “Generation of a chemical genetic model for JAK3” (Scientific Reports, 2021)

Assays:
Assay type in all cases: biochemical
Conditions in all cases: 1 µM inhibitor, mean
AMPK = assay: Selectivity screen AMPK
Aurora A = Aurora A (Homo sapiens, UniProt O14965); assay: Selectivity screen Aurora A
Aurora B = Aurora B (Homo sapiens, UniProt Q96GD4); assay: Selectivity screen Aurora B
BRSK1 = BRSK1 (Homo sapiens, UniProt Q8TDC3); assay: Selectivity screen BRSK1
CHK1 = CHK1 (Homo sapiens, UniProt O14757); assay: Selectivity screen CHK1
Procedure: (§1) For the in vitro kinase assay, JAK3 (5–20 mU diluted in 50 mM Tris pH 7.5, 0.1 mM EGTA, 0.05% β-mercaptoethanol, 1 mg/ml BSA) was assayed against PDKtide ([…]) in a final volume of 25.5 µl containing 50 mM Tris pH 7.5, 0.1 mM EGTA, 0.05% β-mercaptoethanol, 100 µM substrate peptide, 10 mM magnesium acetate and 0.02 mM [33P-γ-ATP] (50–1000 cpm/pmole) and incubated for 30 min at room temperature. Assays were started by the addition of the ATP and stopped by addition of 5 µl of 0.5 M (3%) orthophosphoric acid and then harvested onto P81 Unifilter plates with a wash buffer of 50 mM orthophosphoric acid. To determine the Km for ATP, assays were run using 1, 5, 10, 20, 50, 100, 200, 400, 500 μM ATP and Km derived by non-linear regression fitting to the Michaelis–Menten equation v = Vmax[S]/(Km + [S]). IC50 values for inhibitors via non-linear regression using a parameter model: Y = Bottom + (Top–Bottom)/(1 + (IC50/X)^HillSlope). Non-linear regression was carried out in Prism (version 8). In vitro selectivity screen was carried out as described previously.

DAPK1 = DAPK1 (Homo sapiens, UniProt P53355); assay: Selectivity screen DAPK1
Procedure: as §1

DYRK1A = DYRK1A (Homo sapiens, UniProt Q13627); assay: Selectivity screen DYRK1A
Procedure: as §1

EF2K = EF2K (Homo sapiens, UniProt O00418); assay: Selectivity screen EF2K
EF2K, sequence (O00418 whole entry): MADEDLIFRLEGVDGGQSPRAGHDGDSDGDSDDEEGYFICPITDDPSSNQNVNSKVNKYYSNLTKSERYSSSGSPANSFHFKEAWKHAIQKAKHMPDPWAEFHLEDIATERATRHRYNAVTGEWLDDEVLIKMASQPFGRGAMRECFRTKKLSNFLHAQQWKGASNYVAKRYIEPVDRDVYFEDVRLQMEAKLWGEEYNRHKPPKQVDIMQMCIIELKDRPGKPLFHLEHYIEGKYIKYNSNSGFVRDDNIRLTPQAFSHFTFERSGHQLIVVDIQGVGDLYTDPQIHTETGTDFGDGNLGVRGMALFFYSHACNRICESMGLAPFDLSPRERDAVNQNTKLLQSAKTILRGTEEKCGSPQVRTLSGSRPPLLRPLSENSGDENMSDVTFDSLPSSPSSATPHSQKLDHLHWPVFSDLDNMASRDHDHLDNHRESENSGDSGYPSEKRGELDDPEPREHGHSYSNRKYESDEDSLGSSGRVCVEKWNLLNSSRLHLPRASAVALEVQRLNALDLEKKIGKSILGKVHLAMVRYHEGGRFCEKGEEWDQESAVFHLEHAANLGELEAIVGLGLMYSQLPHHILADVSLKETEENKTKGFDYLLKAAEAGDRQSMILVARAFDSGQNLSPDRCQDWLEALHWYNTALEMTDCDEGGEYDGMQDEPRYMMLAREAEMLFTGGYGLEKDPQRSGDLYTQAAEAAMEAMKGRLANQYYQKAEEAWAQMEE
Procedure: as §1

EIF2AK3 = EIF2AK3 (Homo sapiens, UniProt Q9NZJ5); assay: Selectivity screen EIF2AK3
Procedure: as §1

EPH-B2 = EPH-B2 (Homo sapiens, UniProt P29323); assay: Selectivity screen EPH-B2
Procedure: as §1

ERK1 = ERK1 (Homo sapiens, UniProt P27361); assay: Selectivity screen ERK1
Procedure: as §1

ERK2 = ERK2 (Homo sapiens, UniProt P28482); assay: Selectivity screen ERK2
Procedure: as §1

ERK5 = ERK5 (Homo sapiens, UniProt Q13164); assay: Selectivity screen ERK5
Procedure: as §1

ERK8 = ERK8 (Homo sapiens, UniProt Q8TD08); assay: Selectivity screen ERK8
Procedure: as §1

HIPK1 = HIPK1 (Homo sapiens, UniProt Q86Z02); assay: Selectivity screen HIPK1
Procedure: as §1

HIPK3 = HIPK3 (Homo sapiens, UniProt Q9H422); assay: Selectivity screen HIPK3
HIPK3, sequence (Q9H422 whole entry): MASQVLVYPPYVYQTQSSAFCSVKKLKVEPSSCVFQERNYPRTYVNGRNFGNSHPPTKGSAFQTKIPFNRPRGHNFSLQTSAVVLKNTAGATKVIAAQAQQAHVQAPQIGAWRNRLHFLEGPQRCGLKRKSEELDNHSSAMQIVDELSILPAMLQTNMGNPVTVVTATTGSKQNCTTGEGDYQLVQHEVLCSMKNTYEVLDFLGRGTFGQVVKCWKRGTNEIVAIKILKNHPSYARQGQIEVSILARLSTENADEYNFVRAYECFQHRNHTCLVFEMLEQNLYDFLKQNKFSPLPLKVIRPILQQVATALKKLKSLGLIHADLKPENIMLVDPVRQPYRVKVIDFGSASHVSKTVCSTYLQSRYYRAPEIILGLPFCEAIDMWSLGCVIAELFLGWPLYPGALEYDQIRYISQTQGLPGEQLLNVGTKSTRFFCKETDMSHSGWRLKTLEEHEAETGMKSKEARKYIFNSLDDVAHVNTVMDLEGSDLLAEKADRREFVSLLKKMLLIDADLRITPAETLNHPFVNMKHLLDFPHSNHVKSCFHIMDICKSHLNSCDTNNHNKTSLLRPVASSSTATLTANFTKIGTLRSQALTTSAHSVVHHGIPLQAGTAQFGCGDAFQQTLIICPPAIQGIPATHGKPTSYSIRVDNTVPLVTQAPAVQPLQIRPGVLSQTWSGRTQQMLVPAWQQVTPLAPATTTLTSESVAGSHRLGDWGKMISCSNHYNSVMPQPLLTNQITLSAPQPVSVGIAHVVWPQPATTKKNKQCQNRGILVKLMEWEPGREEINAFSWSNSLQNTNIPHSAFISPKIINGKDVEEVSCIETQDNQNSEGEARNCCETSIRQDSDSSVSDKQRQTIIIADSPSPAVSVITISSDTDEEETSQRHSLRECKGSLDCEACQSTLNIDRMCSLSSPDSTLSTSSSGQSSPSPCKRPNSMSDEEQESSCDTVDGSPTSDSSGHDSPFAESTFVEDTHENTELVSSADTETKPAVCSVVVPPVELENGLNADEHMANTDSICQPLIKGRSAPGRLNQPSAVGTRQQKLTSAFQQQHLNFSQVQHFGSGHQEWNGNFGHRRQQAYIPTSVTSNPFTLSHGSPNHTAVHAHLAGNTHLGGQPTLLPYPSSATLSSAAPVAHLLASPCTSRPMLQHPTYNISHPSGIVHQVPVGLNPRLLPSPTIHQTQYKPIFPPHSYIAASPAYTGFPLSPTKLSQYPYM
Procedure: as §1

IRAK1 = IRAK1 (Homo sapiens, UniProt P51617); assay: Selectivity screen IRAK1
Procedure: as §1

IRAK4 = IRAK4 (Homo sapiens, UniProt Q9NWZ3); assay: Selectivity screen IRAK4
IRAK4, sequence (Q9NWZ3 whole entry): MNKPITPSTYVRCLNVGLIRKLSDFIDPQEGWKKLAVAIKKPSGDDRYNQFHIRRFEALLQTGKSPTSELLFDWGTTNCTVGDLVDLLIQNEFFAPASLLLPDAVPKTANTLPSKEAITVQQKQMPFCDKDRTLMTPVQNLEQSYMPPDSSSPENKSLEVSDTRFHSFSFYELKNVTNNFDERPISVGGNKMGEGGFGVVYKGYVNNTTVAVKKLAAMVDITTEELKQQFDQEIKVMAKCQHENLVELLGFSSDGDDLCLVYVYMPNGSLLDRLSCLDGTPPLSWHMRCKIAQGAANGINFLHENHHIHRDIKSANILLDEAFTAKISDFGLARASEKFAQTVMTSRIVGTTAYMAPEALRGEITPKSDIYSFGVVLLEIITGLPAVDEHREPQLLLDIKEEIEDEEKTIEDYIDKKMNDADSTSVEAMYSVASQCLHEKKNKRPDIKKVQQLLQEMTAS
Procedure: as §1

JNK1 = JNK1 (Homo sapiens, UniProt P45983); assay: Selectivity screen JNK1
Procedure: as §1

MARK2 = MARK2 (Homo sapiens, UniProt Q7KZI7); assay: Selectivity screen MARK2
Procedure: as §1

MEKK1 = MEKK1 (Homo sapiens, UniProt Q13233); assay: Selectivity screen MEKK1
Procedure: as §1

MKK1 = MKK1 (Homo sapiens, UniProt Q02750); assay: Selectivity screen MKK1
Procedure: as §1

MLK1 = MLK1 (Homo sapiens, UniProt P80192); assay: Selectivity screen MLK1
Procedure: as §1

NUAK1 = NUAK1 (Homo sapiens, UniProt O60285); assay: Selectivity screen NUAK1
Procedure: as §1

p38g MAPK = p38g MAPK (Homo sapiens, UniProt P53778); assay: Selectivity screen p38g MAPK
Procedure: as §1

PAK6 = PAK6 (Homo sapiens, UniProt Q9NQU5); assay: Selectivity screen PAK6
PAK6, sequence (Q9NQU5 whole entry): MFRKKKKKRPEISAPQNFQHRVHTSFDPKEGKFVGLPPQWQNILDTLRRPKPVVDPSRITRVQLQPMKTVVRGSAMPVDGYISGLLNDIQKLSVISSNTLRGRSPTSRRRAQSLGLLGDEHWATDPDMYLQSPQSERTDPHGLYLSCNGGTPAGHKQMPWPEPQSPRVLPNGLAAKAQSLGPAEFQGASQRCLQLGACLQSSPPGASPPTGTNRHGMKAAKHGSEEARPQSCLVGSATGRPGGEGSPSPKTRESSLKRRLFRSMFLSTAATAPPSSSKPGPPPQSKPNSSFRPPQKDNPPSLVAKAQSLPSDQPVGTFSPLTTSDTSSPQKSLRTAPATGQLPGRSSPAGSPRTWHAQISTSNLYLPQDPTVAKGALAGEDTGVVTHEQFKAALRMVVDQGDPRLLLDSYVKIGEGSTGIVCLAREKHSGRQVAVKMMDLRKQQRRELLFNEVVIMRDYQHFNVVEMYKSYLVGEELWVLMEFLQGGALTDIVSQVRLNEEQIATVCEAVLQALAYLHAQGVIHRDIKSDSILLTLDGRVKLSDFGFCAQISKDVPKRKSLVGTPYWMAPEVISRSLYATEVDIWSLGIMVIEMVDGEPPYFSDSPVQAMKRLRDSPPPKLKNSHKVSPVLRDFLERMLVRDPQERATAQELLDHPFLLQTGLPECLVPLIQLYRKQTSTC
Procedure: as §1

PDGFRA = PDGFRA (Homo sapiens, UniProt P16234); assay: Selectivity screen PDGFRA
Procedure: as §1

PDK1 = PDK1 (Homo sapiens, UniProt O15530); assay: Selectivity screen PDK1
PDK1, sequence (O15530 whole entry): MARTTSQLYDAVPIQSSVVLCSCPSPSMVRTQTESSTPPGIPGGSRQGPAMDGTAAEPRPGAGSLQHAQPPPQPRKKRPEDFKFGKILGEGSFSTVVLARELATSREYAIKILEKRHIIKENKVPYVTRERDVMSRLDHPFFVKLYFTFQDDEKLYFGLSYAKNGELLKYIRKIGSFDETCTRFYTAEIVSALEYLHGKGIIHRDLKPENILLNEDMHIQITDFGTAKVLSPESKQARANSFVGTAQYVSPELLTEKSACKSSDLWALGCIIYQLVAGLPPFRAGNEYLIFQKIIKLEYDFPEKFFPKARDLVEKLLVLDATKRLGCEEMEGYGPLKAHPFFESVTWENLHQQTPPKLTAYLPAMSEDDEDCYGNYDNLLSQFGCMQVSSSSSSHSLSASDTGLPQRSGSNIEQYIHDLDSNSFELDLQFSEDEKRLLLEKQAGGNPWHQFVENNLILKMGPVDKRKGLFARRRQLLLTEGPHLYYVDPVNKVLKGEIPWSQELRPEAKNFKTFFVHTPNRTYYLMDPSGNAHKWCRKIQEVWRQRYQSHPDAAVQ
Procedure: as §1

PKCa = PKCa (Homo sapiens, UniProt P17252); assay: Selectivity screen PKCa
Procedure: as §1

PRK2 = PRK2 (Homo sapiens, UniProt Q16513); assay: Selectivity screen PRK2
Procedure: as §1

RIPK2 = RIPK2 (Homo sapiens, UniProt O43353); assay: Selectivity screen RIPK2
Procedure: as §1

RSK2 = RSK2 (Homo sapiens, UniProt P51812); assay: Selectivity screen RSK2
RSK2, sequence (P51812 whole entry): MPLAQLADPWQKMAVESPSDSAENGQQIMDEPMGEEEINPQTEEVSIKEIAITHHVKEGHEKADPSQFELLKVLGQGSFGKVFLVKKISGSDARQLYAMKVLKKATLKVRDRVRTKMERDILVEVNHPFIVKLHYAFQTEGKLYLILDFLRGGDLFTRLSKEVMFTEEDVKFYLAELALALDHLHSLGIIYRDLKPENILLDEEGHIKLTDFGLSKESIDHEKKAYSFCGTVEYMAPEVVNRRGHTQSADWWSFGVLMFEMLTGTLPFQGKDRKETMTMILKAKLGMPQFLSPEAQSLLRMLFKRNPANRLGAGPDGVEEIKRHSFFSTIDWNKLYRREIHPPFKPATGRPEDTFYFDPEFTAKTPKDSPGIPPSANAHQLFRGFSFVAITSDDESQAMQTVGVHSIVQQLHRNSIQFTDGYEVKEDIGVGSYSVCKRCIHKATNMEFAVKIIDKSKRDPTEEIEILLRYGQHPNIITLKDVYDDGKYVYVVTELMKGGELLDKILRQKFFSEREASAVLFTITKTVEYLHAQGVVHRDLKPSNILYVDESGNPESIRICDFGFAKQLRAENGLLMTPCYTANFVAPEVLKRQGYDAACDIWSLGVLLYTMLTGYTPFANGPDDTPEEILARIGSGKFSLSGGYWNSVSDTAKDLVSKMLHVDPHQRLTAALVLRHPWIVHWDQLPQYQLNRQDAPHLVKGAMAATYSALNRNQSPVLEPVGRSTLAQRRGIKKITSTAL
Procedure: as §1

S6K1 = S6K1 (Homo sapiens, UniProt P23443); assay: Selectivity screen S6K1
Procedure: as §1

STK33 = STK33 (Homo sapiens, UniProt Q9BYT3); assay: Selectivity screen STK33
Procedure: as §1

TAK1 = TAK1 (Homo sapiens, UniProt O43318); assay: Selectivity screen TAK1
Procedure: as §1

TBK1 = TBK1 (Homo sapiens, UniProt Q9UHD2); assay: Selectivity screen TBK1
Procedure: as §1

TrkA = TrkA (Homo sapiens, UniProt P04629); assay: Selectivity screen TrkA
Procedure: as §1

WNK1 = WNK1 (Homo sapiens, UniProt Q9H4A3); assay: Selectivity screen WNK1
Procedure: as §1

Row | SMILES | activity remaining in the presence of the inhibitor: AMPK (AMPK) | activity remaining in the presence of the inhibitor: Aurora A (Aurora A) | activity remaining in the presence of the inhibitor: Aurora B (Aurora B) | activity remaining in the presence of the inhibitor: BRSK1 (BRSK1) | activity remaining in the presence of the inhibitor: CHK1 (CHK1) | activity remaining in the presence of the inhibitor: DAPK1 (DAPK1) | activity remaining in the presence of the inhibitor: DYRK1A (DYRK1A) | activity remaining in the presence of the inhibitor: EF2K (EF2K) | activity remaining in the presence of the inhibitor: EIF2AK3 (EIF2AK3) | activity remaining in the presence of the inhibitor: EPH-B2 (EPH-B2) | activity remaining in the presence of the inhibitor: ERK1 (ERK1) | activity remaining in the presence of the inhibitor: ERK2 (ERK2) | activity remaining in the presence of the inhibitor: ERK5 (ERK5) | activity remaining in the presence of the inhibitor: ERK8 (ERK8) | activity remaining in the presence of the inhibitor: HIPK1 (HIPK1) | activity remaining in the presence of the inhibitor: HIPK3 (HIPK3) | activity remaining in the presence of the inhibitor: IRAK1 (IRAK1) | activity remaining in the presence of the inhibitor: IRAK4 (IRAK4) | activity remaining in the presence of the inhibitor: JNK1 (JNK1) | activity remaining in the presence of the inhibitor: MARK2 (MARK2) | further results
1 | C=CC(=O)Nc1cccc(CNc2nc(Nc3ccc(N4CCOCC4)cc3)ncc2Cl)c1 [TL8-52] | 80 | 13 | 13 | 86 | 91 | 100 | 100 | 105 | 90 | 81 | 94 | 97 | 63 | 65 | 96 | 107 | 54 | 77 | 104 | 37 | activity remaining in the presence of the inhibitor: MEKK1 (MEKK1): 103; activity remaining in the presence of the inhibitor: MKK1 (MKK1): 84; activity remaining in the presence of the inhibitor: MLK1 (MLK1): 3; activity remaining in the presence of the inhibitor: NUAK1 (NUAK1): 3; activity remaining in the presence of the inhibitor: p38g MAPK (p38g MAPK): 93; activity remaining in the presence of the inhibitor: PAK6 (PAK6): 99; activity remaining in the presence of the inhibitor: PDGFRA (PDGFRA): 35; activity remaining in the presence of the inhibitor: PDK1 (PDK1): 86; activity remaining in the presence of the inhibitor: PKCa (PKCa): 91; activity remaining in the presence of the inhibitor: PRK2 (PRK2): 52; activity remaining in the presence of the inhibitor: RIPK2 (RIPK2): 71; activity remaining in the presence of the inhibitor: RSK2 (RSK2): 53; activity remaining in the presence of the inhibitor: S6K1 (S6K1): 87; activity remaining in the presence of the inhibitor: STK33 (STK33): 94; activity remaining in the presence of the inhibitor: TAK1 (TAK1): 39; activity remaining in the presence of the inhibitor: TBK1 (TBK1): 11; activity remaining in the presence of the inhibitor: TrkA (TrkA): 23; activity remaining in the presence of the inhibitor: WNK1 (WNK1): 112
2 | C=CC(=O)Nc1cccc(CNc2nc(Nc3ccc(N4CCN(C)CC4)cc3OC)ncc2Cl)c1 [TL6-144] | 91 | 94 | 81 | 103 | 93 | 94 | 90 | 95 | 98 | 96 | 94 | 106 | 87 | 90 | 79 | 91 | 81 | 85 | 83 | 84 | activity remaining in the presence of the inhibitor: MEKK1 (MEKK1): 95; activity remaining in the presence of the inhibitor: MKK1 (MKK1): 79; activity remaining in the presence of the inhibitor: MLK1 (MLK1): 20; activity remaining in the presence of the inhibitor: NUAK1 (NUAK1): 4; activity remaining in the presence of the inhibitor: p38g MAPK (p38g MAPK): 88; activity remaining in the presence of the inhibitor: PAK6 (PAK6): 77; activity remaining in the presence of the inhibitor: PDGFRA (PDGFRA): 67; activity remaining in the presence of the inhibitor: PDK1 (PDK1): 101; activity remaining in the presence of the inhibitor: PKCa (PKCa): 81; activity remaining in the presence of the inhibitor: PRK2 (PRK2): 78; activity remaining in the presence of the inhibitor: RIPK2 (RIPK2): 92; activity remaining in the presence of the inhibitor: RSK2 (RSK2): 73; activity remaining in the presence of the inhibitor: S6K1 (S6K1): 90; activity remaining in the presence of the inhibitor: STK33 (STK33): 81; activity remaining in the presence of the inhibitor: TAK1 (TAK1): 77; activity remaining in the presence of the inhibitor: TBK1 (TBK1): 78; activity remaining in the presence of the inhibitor: TrkA (TrkA): 59; activity remaining in the presence of the inhibitor: WNK1 (WNK1): 81
